Each structure is given as a SMILES string.

Experiment [1] addresses T1, Serine/threonine-protein kinase 3 (Homo sapiens) (UniProt Q13188).
T1 sequence (whole entry): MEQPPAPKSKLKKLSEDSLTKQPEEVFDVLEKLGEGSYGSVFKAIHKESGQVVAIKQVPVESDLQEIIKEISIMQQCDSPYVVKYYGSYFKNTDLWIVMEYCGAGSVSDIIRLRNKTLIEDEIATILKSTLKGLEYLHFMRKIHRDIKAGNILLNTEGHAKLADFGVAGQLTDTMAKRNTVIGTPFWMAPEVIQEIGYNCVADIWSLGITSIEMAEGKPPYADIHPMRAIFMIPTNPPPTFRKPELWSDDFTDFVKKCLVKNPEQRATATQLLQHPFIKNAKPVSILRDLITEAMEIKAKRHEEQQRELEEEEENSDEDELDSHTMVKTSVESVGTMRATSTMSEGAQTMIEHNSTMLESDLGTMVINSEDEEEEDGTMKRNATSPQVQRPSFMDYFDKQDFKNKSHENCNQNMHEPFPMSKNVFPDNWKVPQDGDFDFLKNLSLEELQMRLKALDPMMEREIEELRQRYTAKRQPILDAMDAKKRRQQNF
The experiment in a line: Residual activity of MST2 at 10 uM by microplate scintillation counting.

For experiment [2], the target named is Platelet-derived growth factor receptor alpha (Homo sapiens) (UniProt P16234). The experiment in a line: Residual activity of PDGFRalpha at 0.1 uM by microplate scintillation counting.
Sequence of Platelet-derived growth factor receptor alpha (Homo sapiens) (P16234 whole entry): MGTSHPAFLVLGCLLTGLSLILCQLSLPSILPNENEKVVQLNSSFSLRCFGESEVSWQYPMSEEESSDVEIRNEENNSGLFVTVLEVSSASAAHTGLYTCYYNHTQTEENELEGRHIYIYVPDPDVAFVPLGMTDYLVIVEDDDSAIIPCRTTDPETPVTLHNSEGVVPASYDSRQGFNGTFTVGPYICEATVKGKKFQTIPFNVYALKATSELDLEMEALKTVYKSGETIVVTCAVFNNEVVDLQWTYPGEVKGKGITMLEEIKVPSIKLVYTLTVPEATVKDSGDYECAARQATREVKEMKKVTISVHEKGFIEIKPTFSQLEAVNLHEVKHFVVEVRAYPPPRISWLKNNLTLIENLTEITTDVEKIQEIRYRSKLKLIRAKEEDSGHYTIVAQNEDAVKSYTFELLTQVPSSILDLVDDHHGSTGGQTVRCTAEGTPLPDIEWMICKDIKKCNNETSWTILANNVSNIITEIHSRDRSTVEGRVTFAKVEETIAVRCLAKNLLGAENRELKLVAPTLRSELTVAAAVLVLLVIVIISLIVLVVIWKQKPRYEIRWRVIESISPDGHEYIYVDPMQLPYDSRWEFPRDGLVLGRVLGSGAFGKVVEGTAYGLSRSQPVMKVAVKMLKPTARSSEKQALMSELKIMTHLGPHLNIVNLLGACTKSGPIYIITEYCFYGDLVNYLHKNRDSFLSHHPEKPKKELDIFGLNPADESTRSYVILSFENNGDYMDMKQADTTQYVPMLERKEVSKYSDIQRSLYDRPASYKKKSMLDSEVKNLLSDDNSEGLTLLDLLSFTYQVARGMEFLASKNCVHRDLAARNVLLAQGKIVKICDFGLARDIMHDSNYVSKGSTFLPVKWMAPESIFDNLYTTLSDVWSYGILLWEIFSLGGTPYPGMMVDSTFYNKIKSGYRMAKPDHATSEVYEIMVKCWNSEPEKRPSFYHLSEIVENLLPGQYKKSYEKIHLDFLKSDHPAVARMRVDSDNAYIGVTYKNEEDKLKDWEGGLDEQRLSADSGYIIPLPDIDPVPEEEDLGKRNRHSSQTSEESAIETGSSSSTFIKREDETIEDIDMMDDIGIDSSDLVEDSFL
Experiment [3] deals with T2, Ephrin type-B receptor 4 (Homo sapiens) (UniProt P54760).
T2 sequence (whole entry): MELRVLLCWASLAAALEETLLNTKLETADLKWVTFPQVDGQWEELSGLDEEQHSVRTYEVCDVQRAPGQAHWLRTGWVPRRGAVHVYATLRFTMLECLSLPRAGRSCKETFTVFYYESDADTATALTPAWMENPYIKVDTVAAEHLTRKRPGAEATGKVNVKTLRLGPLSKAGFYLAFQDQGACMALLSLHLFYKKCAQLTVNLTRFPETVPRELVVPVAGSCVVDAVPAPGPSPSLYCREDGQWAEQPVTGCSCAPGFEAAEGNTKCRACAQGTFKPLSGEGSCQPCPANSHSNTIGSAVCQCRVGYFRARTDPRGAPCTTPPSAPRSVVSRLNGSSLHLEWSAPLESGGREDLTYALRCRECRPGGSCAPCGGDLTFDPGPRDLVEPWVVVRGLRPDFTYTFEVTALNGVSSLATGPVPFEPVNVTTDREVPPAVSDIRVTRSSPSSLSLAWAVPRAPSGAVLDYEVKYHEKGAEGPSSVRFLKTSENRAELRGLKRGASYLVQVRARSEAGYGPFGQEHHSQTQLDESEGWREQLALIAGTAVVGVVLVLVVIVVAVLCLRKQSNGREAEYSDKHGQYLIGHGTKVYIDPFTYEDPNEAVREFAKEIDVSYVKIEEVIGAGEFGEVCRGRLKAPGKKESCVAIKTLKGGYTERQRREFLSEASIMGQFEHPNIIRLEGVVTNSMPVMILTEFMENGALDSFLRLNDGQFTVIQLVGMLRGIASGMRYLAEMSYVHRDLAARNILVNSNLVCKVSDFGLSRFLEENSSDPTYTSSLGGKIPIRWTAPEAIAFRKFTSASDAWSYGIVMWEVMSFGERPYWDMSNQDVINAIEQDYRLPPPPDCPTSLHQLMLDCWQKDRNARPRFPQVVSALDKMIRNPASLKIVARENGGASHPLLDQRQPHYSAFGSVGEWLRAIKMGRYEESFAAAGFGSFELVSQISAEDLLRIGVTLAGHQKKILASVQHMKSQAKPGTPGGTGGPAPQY
The experiment in a line: Residual activity of EPHB4 at 0.1 uM by microplate scintillation counting.

Experiment [4] has as its target Tyrosine-protein kinase Lyn (Homo sapiens) (UniProt P07948). Nature of the experiment: Residual activity of LYN at 1 uM by microplate scintillation counting.
Experiment [5] has as its target Fibroblast growth factor receptor 1 (Homo sapiens) (UniProt P11362). The experiment in a line: Residual activity of wild type FGF-R1 at 10 uM by microplate scintillation counting.
Experiment [6] has as its target T3, Ephrin type-B receptor 3 (Homo sapiens) (UniProt P54753).
T3 sequence (whole entry): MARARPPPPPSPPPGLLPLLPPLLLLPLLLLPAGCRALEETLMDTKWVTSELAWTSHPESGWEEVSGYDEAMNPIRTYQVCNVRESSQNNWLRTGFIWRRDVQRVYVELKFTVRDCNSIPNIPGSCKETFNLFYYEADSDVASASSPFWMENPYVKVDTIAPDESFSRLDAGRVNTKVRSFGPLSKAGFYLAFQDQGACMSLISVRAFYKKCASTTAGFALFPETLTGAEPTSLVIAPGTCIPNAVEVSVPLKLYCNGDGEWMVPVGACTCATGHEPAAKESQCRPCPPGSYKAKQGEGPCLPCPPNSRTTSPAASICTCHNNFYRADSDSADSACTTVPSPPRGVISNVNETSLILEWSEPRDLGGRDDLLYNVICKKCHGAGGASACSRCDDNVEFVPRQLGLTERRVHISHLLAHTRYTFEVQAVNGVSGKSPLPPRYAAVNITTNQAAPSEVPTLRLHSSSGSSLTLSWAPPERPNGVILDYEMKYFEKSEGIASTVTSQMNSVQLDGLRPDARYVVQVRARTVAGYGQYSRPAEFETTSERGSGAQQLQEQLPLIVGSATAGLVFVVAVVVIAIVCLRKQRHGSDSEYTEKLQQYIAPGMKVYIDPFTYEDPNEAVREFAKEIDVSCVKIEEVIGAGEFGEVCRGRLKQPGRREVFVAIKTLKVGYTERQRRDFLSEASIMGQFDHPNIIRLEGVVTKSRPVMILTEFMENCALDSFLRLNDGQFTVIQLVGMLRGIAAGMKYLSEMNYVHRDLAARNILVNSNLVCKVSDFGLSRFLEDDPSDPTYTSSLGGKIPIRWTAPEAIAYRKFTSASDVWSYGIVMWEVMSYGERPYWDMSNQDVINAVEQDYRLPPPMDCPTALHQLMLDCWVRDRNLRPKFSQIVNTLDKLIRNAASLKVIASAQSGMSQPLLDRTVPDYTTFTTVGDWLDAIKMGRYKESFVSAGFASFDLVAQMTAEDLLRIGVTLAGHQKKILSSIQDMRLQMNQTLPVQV
Nature of the experiment: Residual activity of EPHB3 at 1 uM by microplate scintillation counting.

Experiment [7] addresses Protein kinase C beta type (Homo sapiens) (UniProt P05771). Nature of the experiment: Residual activity of PKCbeta2 at 10 uM by microplate scintillation counting.
Experiment [8] addresses Proto-oncogene tyrosine-protein kinase Src (Homo sapiens) (UniProt P12931). Nature of the experiment: Residual activity of SRC at 0.1 uM by microplate scintillation counting.
Experiment [9] concerns the target Casein kinase I isoform epsilon (Homo sapiens) (UniProt P49674). The experiment in a line: Residual activity of CK1epsilon at 10 uM by microplate scintillation counting.

Sequence of Fibroblast growth factor receptor 1 (Homo sapiens) (P11362 22-822 limits assumed): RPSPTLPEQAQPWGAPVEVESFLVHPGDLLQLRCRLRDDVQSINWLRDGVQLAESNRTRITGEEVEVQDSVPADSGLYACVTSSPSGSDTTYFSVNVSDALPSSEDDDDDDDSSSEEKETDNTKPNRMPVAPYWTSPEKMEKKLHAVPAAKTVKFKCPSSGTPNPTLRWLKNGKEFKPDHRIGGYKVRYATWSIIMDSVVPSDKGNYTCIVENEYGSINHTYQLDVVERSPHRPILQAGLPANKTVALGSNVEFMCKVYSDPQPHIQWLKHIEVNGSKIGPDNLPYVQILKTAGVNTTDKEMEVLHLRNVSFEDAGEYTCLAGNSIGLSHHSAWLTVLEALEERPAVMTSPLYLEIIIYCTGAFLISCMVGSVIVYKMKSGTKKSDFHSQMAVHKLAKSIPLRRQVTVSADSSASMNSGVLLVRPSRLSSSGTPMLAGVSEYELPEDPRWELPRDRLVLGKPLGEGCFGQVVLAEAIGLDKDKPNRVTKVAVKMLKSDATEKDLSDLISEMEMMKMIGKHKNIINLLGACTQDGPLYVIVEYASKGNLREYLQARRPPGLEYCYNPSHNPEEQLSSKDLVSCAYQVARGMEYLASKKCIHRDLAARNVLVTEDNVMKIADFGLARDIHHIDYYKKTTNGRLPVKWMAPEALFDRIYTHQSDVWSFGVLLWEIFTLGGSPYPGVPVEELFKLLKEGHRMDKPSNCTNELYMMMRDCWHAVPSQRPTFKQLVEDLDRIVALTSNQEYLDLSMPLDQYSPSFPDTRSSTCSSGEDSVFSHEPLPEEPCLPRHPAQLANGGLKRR
Sequence of Protein kinase C beta type (Homo sapiens) (P05771 2-671 limits assumed): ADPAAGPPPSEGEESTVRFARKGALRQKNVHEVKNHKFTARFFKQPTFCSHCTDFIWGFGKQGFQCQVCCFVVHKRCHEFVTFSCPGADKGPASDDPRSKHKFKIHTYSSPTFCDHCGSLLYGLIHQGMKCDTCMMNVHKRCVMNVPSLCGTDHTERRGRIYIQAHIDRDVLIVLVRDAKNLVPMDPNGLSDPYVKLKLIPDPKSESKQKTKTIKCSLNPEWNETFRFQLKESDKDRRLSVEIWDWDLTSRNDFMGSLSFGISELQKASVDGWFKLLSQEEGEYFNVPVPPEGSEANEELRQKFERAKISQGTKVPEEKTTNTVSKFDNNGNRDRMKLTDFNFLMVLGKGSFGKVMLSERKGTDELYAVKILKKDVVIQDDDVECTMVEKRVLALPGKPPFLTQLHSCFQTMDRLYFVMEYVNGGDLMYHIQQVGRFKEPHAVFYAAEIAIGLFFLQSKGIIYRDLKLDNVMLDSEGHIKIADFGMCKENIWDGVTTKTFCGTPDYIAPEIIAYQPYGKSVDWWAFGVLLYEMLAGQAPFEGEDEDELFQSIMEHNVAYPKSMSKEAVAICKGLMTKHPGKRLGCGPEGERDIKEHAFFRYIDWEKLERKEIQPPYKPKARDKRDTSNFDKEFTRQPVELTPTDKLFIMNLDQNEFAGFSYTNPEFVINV
Sequence of Casein kinase I isoform epsilon (Homo sapiens) (P49674 whole entry, looked up, canonical isoform): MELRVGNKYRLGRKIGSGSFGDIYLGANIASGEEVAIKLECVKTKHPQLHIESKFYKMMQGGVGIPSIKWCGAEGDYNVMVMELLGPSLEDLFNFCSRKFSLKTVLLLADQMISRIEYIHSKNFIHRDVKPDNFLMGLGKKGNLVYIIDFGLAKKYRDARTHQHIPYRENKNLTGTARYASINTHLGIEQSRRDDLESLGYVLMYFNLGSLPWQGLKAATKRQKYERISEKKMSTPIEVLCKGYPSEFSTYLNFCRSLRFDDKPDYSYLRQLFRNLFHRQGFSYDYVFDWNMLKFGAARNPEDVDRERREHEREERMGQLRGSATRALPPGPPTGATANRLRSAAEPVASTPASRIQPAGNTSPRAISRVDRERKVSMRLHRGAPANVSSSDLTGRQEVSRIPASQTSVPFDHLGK
Sequence of Proto-oncogene tyrosine-protein kinase Src (Homo sapiens) (P12931 2-536 limits assumed): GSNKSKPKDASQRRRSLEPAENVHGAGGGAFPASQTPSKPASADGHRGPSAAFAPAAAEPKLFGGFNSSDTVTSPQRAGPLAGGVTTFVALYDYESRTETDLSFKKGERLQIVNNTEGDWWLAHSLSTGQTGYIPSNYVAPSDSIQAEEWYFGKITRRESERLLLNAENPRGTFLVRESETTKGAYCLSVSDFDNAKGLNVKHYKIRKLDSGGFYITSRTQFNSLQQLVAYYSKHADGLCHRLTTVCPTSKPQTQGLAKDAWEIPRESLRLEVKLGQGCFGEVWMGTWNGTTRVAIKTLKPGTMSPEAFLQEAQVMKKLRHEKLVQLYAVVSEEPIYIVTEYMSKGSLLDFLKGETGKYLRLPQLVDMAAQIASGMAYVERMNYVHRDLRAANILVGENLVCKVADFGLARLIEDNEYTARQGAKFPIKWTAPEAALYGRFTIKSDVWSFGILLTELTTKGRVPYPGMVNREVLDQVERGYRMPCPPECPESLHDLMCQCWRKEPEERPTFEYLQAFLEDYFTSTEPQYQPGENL
Sequence of Tyrosine-protein kinase Lyn (Homo sapiens) (P07948 2-512 limits assumed): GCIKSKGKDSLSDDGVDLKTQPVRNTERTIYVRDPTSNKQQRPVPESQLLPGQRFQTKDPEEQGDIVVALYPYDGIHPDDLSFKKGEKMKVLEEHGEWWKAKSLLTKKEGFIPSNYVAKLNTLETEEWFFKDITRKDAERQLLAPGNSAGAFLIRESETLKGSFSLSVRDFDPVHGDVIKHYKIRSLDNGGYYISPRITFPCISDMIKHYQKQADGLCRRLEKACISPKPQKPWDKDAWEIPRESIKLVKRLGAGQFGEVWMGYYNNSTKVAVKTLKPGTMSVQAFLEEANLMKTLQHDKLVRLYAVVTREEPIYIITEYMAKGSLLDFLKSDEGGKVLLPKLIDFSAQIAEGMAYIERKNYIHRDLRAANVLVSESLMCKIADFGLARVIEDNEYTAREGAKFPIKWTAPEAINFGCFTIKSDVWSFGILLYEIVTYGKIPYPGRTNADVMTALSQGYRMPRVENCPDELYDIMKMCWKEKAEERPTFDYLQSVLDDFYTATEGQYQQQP

Turning to `COc1cc2c(Oc3ccc(-c4nc5ccccc5s4)cc3)ncnc2cc1OCCCN1CCCC1`, the residual activity (in general, the signal under treatment as a percentage of the control signal) in [1] was 20%; in [2], 86%; in experiment [3] it was 98%; in experiment [4], 119%; in experiment [5] it was 124%; in [6] it was 105%. Further, the figures for the residual activity in [7], in [8] and in [9] were 69%, 100% and 147%, respectively.
As for `COc1cc2c(Oc3ccc(-c4nc5ccccc5s4)cc3F)ncnc2cc1OCCCN1CCN(C)CC1`, the residual activity in experiment [1] is 23%; in experiment [2], 94%; in [3] it was 98%; in experiment [4], 93%; in [5], 47%; in [6], 106%. The residual activity is 53% in [7], 100% in experiment [8] and 97% in [9].
For the compound `COc1cc2c(Oc3ccc(-c4nc5ccccc5s4)cc3)ncnc2cc1OCCCN1CCN(C)CC1`, the residual activity was 21% in [1]; 86% in [2]; 108% in [3]; 104% in [4]; 157% in experiment [5]; 108% in experiment [6]. Moreover, the residual activity in experiment [7] worked out at 77%; in [8], 100%; in [9] it was 156%.
